Active and inactive are the calls of the source. The calls are words filed in the database; no cut-off is given here. Starred links: 1 amine or outer side, 2 acyl side, 3 side chain; linkers in the order of their positions; H or OH if unused. Non-standard residues stand in square brackets, D forms with d. Residues, ends and D or L forms follow the SMILES beside them. *: point of attachment. Cha = N[C@@H](CC1CCCCC1)C(=O)O; Morpholide = C1CN(*)CCO1; CO = O=C([*:1])[*:2]; Bn = c1ccc(C*)cc1; CH2Cl = ClC*
Columns and labels:
Cathepsin S [1] = molecular target: T1, Cathepsin S (Homo sapiens, UniProt P25774); assay: Inhibition of recombinant Cathepsin S (unknown origin) expressed in Escherichia coli using Z-Val-Val-Arg-AMC as substrate by fluorescence based assay
Target sequence in this assay (P25774 whole entry): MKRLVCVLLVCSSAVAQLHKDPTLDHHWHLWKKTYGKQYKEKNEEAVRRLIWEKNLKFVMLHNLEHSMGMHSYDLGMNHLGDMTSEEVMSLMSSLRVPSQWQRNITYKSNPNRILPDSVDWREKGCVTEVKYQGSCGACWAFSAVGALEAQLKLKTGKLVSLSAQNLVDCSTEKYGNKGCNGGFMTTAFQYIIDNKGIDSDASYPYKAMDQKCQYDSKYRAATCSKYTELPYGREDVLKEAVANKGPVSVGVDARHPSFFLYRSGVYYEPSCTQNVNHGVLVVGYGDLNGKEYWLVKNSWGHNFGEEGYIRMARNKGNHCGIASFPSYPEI

Cathepsin B = Cathepsin B (Homo sapiens, UniProt P07858); assay: Inhibition of human Cathepsin B using Z-Phe-Arg-AMC as substrate by fluorescence based assay
Procathepsin L = Procathepsin L (Homo sapiens, UniProt P07711); assay: Inhibition of human Cathepsin L using Z-Phe-Arg-AMC as substrate by fluorescence based assay
Procathepsin L, sequence (P07711 whole entry): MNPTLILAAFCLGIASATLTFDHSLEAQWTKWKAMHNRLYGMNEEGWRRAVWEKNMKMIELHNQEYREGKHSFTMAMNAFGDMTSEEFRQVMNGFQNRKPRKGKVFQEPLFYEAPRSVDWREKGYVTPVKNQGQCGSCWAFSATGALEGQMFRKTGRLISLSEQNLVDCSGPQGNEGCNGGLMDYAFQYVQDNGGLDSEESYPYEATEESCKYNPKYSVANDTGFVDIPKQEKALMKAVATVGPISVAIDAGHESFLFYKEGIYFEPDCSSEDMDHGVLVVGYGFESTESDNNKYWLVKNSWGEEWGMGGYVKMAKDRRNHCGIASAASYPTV

[2] = Permeability of compound measured after 7 hrs by PAMPA; assay type: ADME; details: read-out: permeability
[3] = Selectivity index, ratio of Ki for human Cathepsin L using Z-Phe-Arg-AMC as substrate to Ki for recombinant Cathepsin S (unknown origin) expressed in Escherichia coli using Z-Val-Val-Arg-AMC as substrate
[4] = Selectivity index, ratio of Ki for human Cathepsin B using Z-Phe-Arg-AMC as substrate to Ki for recombinant Cathepsin S (unknown origin) expressed in Escherichia coli using Z-Val-Val-Arg-AMC as substrate
Cathepsin S [5] = molecular target: T1, Cathepsin S; assay: Irreversible binding affinity to recombinant Cathepsin S (unknown origin) expressed in Escherichia coli incubated for 60 mins followed by substrate addition by fluorescence based dilution assay
Target sequence in this assay (P25774 115-331 limits assumed): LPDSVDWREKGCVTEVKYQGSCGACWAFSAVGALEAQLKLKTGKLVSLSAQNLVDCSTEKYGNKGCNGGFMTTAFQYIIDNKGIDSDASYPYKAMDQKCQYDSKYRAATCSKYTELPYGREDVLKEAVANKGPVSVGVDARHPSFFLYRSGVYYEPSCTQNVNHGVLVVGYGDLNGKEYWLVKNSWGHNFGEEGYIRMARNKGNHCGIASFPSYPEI

Cathepsin S [6] = molecular target: T1, Cathepsin S; assay: Binding affinity to recombinant Cathepsin S (unknown origin) expressed in Escherichia coli using Z-Val-Val-Arg-AMC as substrate assessed as Kinact for irreversible binding by fluorescence based assay
Target sequence in this assay (P25774 115-331 limits assumed): as above

Cathepsin S [7] = molecular target: T1, Cathepsin S; assay: Binding affinity to recombinant Cathepsin S (unknown origin) expressed in Escherichia coli using Z-Val-Val-Arg-AMC as substrate assessed as second-order rate constant (K) for irreversible binding by fluorescence based assay
Target sequence in this assay (P25774 115-331 limits assumed): as above

Cathepsin S [8] = molecular target: T1, Cathepsin S; assay: Inhibition of Cathepsin S (unknown origin)
Target sequence in this assay (P25774 whole entry): as the sequence (P25774 whole entry) above

[9] = Stability of compound at pH 4 assessed as compound remaining measured after 24 hrs; assay type: physicochemical; details: buffer, pH 4, 24 h
[10] = Stability of compound at pH 7.4 assessed as compound remaining measured after 24 hrs; assay type: physicochemical; details: buffer, read-out: Stability
[11] = Stability of compound at pH 4 assessed as compound remaining measured after 2 hrs; assay type: physicochemical; details: buffer, pH 4, 2 h
Cathepsin S [12] = molecular target: T1, Cathepsin S; assay: Binding affinity to recombinant Cathepsin S (unknown origin) expressed in Escherichia coli using Z-Val-Val-Arg-AMC as substrate assessed as inhibition constant for slowly reversible binding by fluorescence based assay
Target sequence in this assay (P25774 whole entry): as above

[13] = Oral bioavailability in rat; assay type: ADME, organism-based; details: in vivo

Ki (Cathepsin S [1])	Ki (Cathepsin B)	Ki (Procathepsin L)	Papp at 7 h [2]	SMILES	further results
146 nM	> 12000 nM	> 10000 nM		N#C[C@H](CCc1ccccc1)NC(=O)[C@H](CC1CCCCC1)N[C@@H](c1ccc(F)cc1)C(F)(F)F	
11 nM	> 12000 nM	> 10000 nM		N#C[C@H](COCc1ccccc1)NC(=O)[C@H](CC1CCCCC1)N[C@@H](c1ccc(F)cc1)C(F)(F)F	
61 nM	> 12000 nM	5040 nM	4.1 ×10⁻⁶ cm/s	N#C[C@H](COCc1ccccc1)NC(=O)[C@H](CC1CCCCC1)NC(=O)C1CCOCC1	
	1050 nM	543 nM	4.7 ×10⁻⁶ cm/s	N#C[C@H](COCc1ccccc1)NC(=O)[C@H](CC1CCCCC1)NC(=O)N1CCOCC1	
3.6 nM	36 nM	> 10000 nM		CS(=O)(=O)C[C@H](N[C@@H](c1ccc([N+](=O)[O-])cc1)C(F)(F)F)C(=O)N[C@H](C#N)CCc1ccccc1	Ratio Ki [3]: > 2780
2.4 nM	157 nM	1950 nM		CS(=O)(=O)C[C@H](N[C@@H](c1ccc(F)cc1)C(F)(F)F)C(=O)N[C@H](C#N)COCc1ccccc1	
13 nM	> 12000 nM	716 nM		N#CC1(NC(=O)[C@H](CC2CCCCC2)NC(=O)c2ccncc2)CC1	
1 nM	1670 nM	7110 nM		CS(=O)(=O)C[C@H](N[C@@H](c1ccc(F)cc1)C(F)(F)F)C(=O)NC1(C#N)CC1	Ratio Ki [4]: 1670; Activity (Cathepsin S [5]): inactive
67 nM	> 2550 nM	> 600 nM		O=C(CO)[C@H](COCc1ccccc1)NC(=O)[C@H](CC1CCCCC1)NC(=O)N1CCOCC1	Activity (Cathepsin S [5]): inactive
3 nM				C=CS(=O)(=O)C(=O)[C@H](COCc1ccccc1)NC(=O)[C@H](CC1CCCCC1)NC(=O)N1CCOCC1	Kinact (Cathepsin S [6]): 0.02 s⁻¹; K (Cathepsin S [7]): 7.2 10^6/M/s; Activity (Cathepsin S [5]): Active
1.5 nM	> 12000 nM	385 nM		N#CC1(NC(=O)[C@H](CC2CCCCC2)NC(=O)N2CCOCC2)CC1	
				CN1CCN(C(=O)N[C@@H](Cc2ccccc2)C(=O)N[C@H](/C=C/S(=O)(=O)c2ccccc2)CCc2ccccc2)CC1 [K-777]	Ki (Cathepsin S [8]): 13 nM
2.2 nM	142 nM	21 nM	0.1 ×10⁻⁶ cm/s	O=C(N/N=C/[C@H](COCc1ccccc1)NC(=O)[C@H](CC1CCCCC1)NC(=O)N1CCOCC1)c1ccccc1	Stability [9]: 80%; remaining at 24 h [10]: 50%; Stability [11]: 50%
117 nM	> 12000 nM	1670 nM	0.1 ×10⁻⁶ cm/s	N#CC1(NC(=O)[C@H](CC2CCCCC2)NC(=O)C2CCOCC2)CC1	
989 nM	> 12 nM	> 2500 nM		O=C(N/N=C(\CS(=O)(=O)c1ccccc1)[C@H](COCc1ccccc1)NC(=O)[C@H](CC1CCCCC1)NC(=O)N1CCOCC1)c1ccccc1	Stability [9]: 13%
331 nM	> 510 nM	> 600 nM	0.8 ×10⁻⁶ cm/s	O=C(CS(=O)(=O)c1ccccc1)[C@H](COCc1ccccc1)NC(=O)[C@H](CC1CCCCC1)NC(=O)N1CCOCC1	Ki (Cathepsin S [12]): 43 nM; Activity (Cathepsin S [5]): inactive
13 nM	82 nM	> 10000 nM	0.7 ×10⁻⁶ cm/s	CS(=O)(=O)C[C@H](N[C@@H](c1ccc([N+](=O)[O-])cc1)C(F)(F)F)C(=O)N[C@H](C#N)COCc1ccccc1	
13 nM	1670 nM	1460 nM	2.5 ×10⁻⁶ cm/s	N#C[C@H](CCc1ccccc1)NC(=O)[C@H](CC1CCCCC1)NC(=O)c1ccncc1	
165 nM	> 10 nM	> 3000 nM		O=C(SCC(=O)[C@H](COCc1ccccc1)NC(=O)[C@H](CC1CCCCC1)NC(=O)N1CCOCC1)c1ccccc1	Activity (Cathepsin S [5]): inactive
	7850 nM	2540 nM	6 ×10⁻⁶ cm/s	N#C[C@H](CCc1ccccc1)NC(=O)[C@H](CC1CCCCC1)NC(=O)N1CCOCC1	
0.039 nM	64 nM	17 nM	4.5 ×10⁻⁶ cm/s	O=C[C@H](COCc1ccccc1)NC(=O)[C@H](CC1CCCCC1)NC(=O)N1CCOCC1 ({Morpholide-CO}-[Cha]-Ser(Bn)-aldehyde)	Ki (Cathepsin S [12]): 0.016 nM; Ratio Ki [4]: > 1600; Ratio Ki [3]: > 435
				CNC(=O)O[C@H]1COc2ccc(N3CCN(C4COC4)CC3)cc2[C@@H]1NC(=O)c1ccc(F)cc1	bioavailability [13]: 92%
382 nM	> 12000 nM	6340 nM	6.6 ×10⁻⁶ cm/s	N#C[C@H](CCc1ccccc1)NC(=O)[C@H](CC1CCCCC1)NC(=O)C1CCOCC1	
25 nM	> 2550 nM	> 600 nM		O=C(OCC(=O)[C@H](COCc1ccccc1)NC(=O)[C@H](CC1CCCCC1)NC(=O)N1CCOCC1)c1ccccc1	Activity (Cathepsin S [5]): Active
0.5 nM				O=C(CCl)[C@H](COCc1ccccc1)NC(=O)[C@H](CC1CCCCC1)NC(=O)N1CCOCC1 ({Morpholide-CO}-[Cha]-Ser(Bn)-CH2Cl)	Kinact (Cathepsin S [6]): 0.002 s⁻¹; K (Cathepsin S [7]): 4.3 10^6/M/s
7.8 nM	> 12000 nM	> 10000 nM		CS(=O)(=O)C[C@H](N[C@@H](c1ccc([N+](=O)[O-])cc1)C(F)(F)F)C(=O)NC1(C#N)CC1	Ratio Ki [4]: > 1500
	1910 nM	1020 nM	2 ×10⁻⁶ cm/s	N#C[C@H](COCc1ccccc1)NC(=O)[C@H](CC1CCCCC1)NC(=O)c1ccncc1	
20 nM	> 12000 nM	1500 nM	4.9 ×10⁻⁶ cm/s	N#CC1(NC(=O)[C@H](CC2CCCCC2)N[C@@H](c2ccc(F)cc2)C(F)(F)F)CC1	
